Experiments:
[1] = Variable Temperature X-Ray Powder Diffraction (VT-XRPD); assay type: physicochemical; set-up: key: M4: Crystalline Form 4 mono(hydrogen sulfate); M8: Crystalline Form 8 mono(hydrogen sulfate); Amorphous mono(hydrogen sulfate)
Experimental: (§1) In the examples below, VT-XRPD analysis was carried out on a Philips X'Pert Pro Multipurpose diffractometer equipped with a temperature chamber. The samples were scanned between 4 and 36° 2θ using Cu K radiation (α1 λ=1.54060 Å; α2=1.54443 Å; β=1.39225 Å; α1: α2 ratio=0.5; most, if not all, B radiation is removed from the beam using an X-ray mirror) running in Bragg-Brentano geometry (step size 0.008° 2θ) using 40 kV/40 mA generator settings. Measurements were carried out from ambient temperature to an upper limit of 250° C., with a final measurement taken after cooling.
as §1, with “VT-XRPD” for “In the examples below, VT-XRPD”, “Å; β2=1.39225” for “Å; β=1.39225”, “Å; α1:α2” for “Å; α1: α2”, “all, β” for “all, B”

ENT1 = biological target: T1, ENT1 (Homo sapiens, UniProt Q99808); assay: ENT1 activity: intracellular uptake of 5-Ethynyl-Uridine (5EU) in whole blood, CD19 positive cells, flow cytometry; assay type: cell-based; details: 5EU 60 min at 37° C.
T1 construct: endogenous in cells; host or cells: CD19-positive cells (B cells) in whole blood from healthy donors
T1 sequence (Q99808 1-456): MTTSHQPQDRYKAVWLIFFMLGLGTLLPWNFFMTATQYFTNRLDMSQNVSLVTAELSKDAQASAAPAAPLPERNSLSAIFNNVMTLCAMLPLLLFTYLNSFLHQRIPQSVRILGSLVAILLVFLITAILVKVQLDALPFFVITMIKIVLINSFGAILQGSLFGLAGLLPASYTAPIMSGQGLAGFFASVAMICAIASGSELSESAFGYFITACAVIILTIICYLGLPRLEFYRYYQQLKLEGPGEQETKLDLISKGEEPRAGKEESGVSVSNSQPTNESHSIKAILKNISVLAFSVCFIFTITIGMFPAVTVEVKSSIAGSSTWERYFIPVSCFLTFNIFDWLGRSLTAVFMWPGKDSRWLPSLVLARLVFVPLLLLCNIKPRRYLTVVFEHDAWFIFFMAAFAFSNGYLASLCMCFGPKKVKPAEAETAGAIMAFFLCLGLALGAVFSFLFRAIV
Experimental: Example 20-ENT1 Activity of Crystalline Form 2 Compound 1 di(hydrogen sulfate) trihydrate compared to Compound 1 (free base)-Initial and after Six-Month Storage: (1) Initial time: Whole blood from 8 healthy donors was incubated with 5-Ethynyl-Uridine (5EU, CAS #: 69075-42-9, Jena Bioscience) for 60 min at 37° C., in the absence or presence of freshly suspended 1 μM Compound 1 (free base) or 1 μM Form 2 Compound 1 di(hydrogen sulfate) trihydrate. Intracellular uptake of 5EU through ENT1 transporters was assessed by standard flow cytometry and ENT1 activity was determined.
In FIG. 101, the data are expressed as % of ENT1 activity in untreated CD19 cells, arbitrary set at 100%, and are the means±SD of three independent experiments. Statistical analysis was performed using one-way analysis of variance (ANOVA) followed by Tukey's post hoc analysis with Prism 10.1.2 software (GraphPad Software). *: p<0.0001 vs. untreated B cells; ns: non-significant.
(2) Six months: Compound stability was evaluated on suspended solutions of Compound 1 (free base) or Form 2 Compound 1 di(hydrogen sulfate) trihydrate that were stored at −20° C. for 6 months. On the day of the experiment, whole blood from 3 healthy donors was incubated with 5-Ethynyl-Uridine (5EU, CAS #: 69075-42-9, Jena Bioscience) for 60 min at 37° C., in the absence or presence of either 1 μM Compound 1 (free base) or 1 μM Form 2 Compound 1 di(hydrogen sulfate) trihydrate of 6-month-old solutions. Intracellular uptake of 5EU through ENT1 transporters was assessed by standard flow cytometry and ENT1 activity was determined.
In FIG. 102, the data are expressed as % of ENT1 activity in untreated CD19 cells, arbitrary set at 100%, and are the means±SD. Statistical analysis was performed using two-way analysis of variance (ANOVA) with Prism 10.1.2 software (GraphPad Software). *: p<0.05 vs. untreated B cells; **: p<0.01 vs. untreated B cells; ns: non-significant.

[2] = particle size distribution (Mastersizer 2000); assay type: physicochemical
Experimental: In Example 5, the particle size distribution of solids was measured using a Mastersizer 2000 instrument and the method is detailed below.

[3] = Variable Temperature X-Ray Powder Diffraction (VT-XRPD); assay type: physicochemical; set-up: key: Crystalline Form 2 di(hydrogen sulfate) trihydrate; Crystalline Form 5 di(hydrogen sulfate); PC: Poorly Crystalline; details: second Heating, hold 30 min
Experimental: as §1
as §1, with “VT-XRPD” for “In the examples below, VT-XRPD”, “Å; β2=1.39225” for “Å; β=1.39225”, “Å; α1:α2” for “Å; α1: α2”, “all, β” for “all, B”

[4] = After complete equilibration, 3 days post-drying (moisture content = 6.07%)
[5] = Before complete equilibration, 24 hr post-drying (moisture content = 4.33%)

| decrease of ENT1 activity compared to untreated CD19 positive cells (ENT1; 1 μM of solutions stored at −20° C. for 6 months, whole blood from 3 healthy donors) [%] | decrease of ENT1 activity compared to untreated CD19 positive cells (ENT1; 1 μM, freshly suspended, whole blood from 8 healthy donors) [%] | D10 [2, 4] [μm] | D50 [2, 4] [μm] | D90 [2, 4] [μm] | D10 [2, 5] [μm] | D50 [2, 5] [μm] | D90 [2, 5] [μm] | VT-XRPD Results ([3]; 120° C.) | VT-XRPD Results ([3]; 130° C.) | Compound | VT-XRPD Results ([1]; Cooling, 30° C., hold 10 min) | VT-XRPD Results ([1]; Heating, 40° C., hold 60 min) | VT-XRPD Results ([1]; Heating, 50° C., hold 60 min) | VT-XRPD Results ([1]; Heating, 70° C., hold 60 min) | VT-XRPD Results ([1]; second Heating, 50° C., hold 60 min) | VT-XRPD Results ([1]; second Heating, 70° C., hold 60 min) | VT-XRPD Results ([1]; second Heating, 90° C., hold 60 min) | VT-XRPD Results ([1]; second Heating, 100° C., hold 60 min) | VT-XRPD Results ([1]; second Heating, 110° C., hold 60 min) |
| --- | --- | --- | --- | --- | --- | --- | --- | --- | --- | --- | --- | --- | --- | --- | --- | --- | --- | --- | --- |
|  |  |  |  |  |  |  |  |  |  | COc1cc(C(=O)O[C@@H]2CCCOc3cc(cc(OC)c3OC)C(=O)NCCCN3CCCN(CC2)CC3)cc(OC)c1OC.O=S(=O)(O)O | M8 | M8 | M8 | M8 | M8 | M8 | Amorphous | Amorphous | Amorphous |
| 30.4 | 43.9 | 6.32 | 32.90 | 84.73 | 17.596 | 46.785 | 109.799 | 5 | 5 | CCCN1CCNCCCNC(=O)c2cc(OC)c(OC)c(c2)OCCC[C@@H](OC(=O)c2cc(OC)c(OC)c(OC)c2)CC1 |  |  |  |  |  |  |  |  |  |

Source: patent US20240327415A1, “Multicomponent Complexes, Including Salts, Crystalline Forms, and Hydrates and Solvates of ENT1 Inhibitors” (iTeos Belgium SA, priority 2023, published 2024)
